Active and inactive are the calls of the source. No cut-off for these calls is given here.
How the values were obtained:
[1] = Cytotoxicity against human 518A2 cells by SRB assay; assay type: functional, cell-based
MCF7 [2] = test: Induction of apoptosis in human MCF7 cells at 20 uM by acridine orange/ethidium bromide staining; assay type: functional, cell-based
[3] = Cytotoxicity against human DLD1 cells by SRB assay; assay type: functional, cell-based; details: DLD-1
A549 = test: Induction of apoptosis in human A549 cells by acridine orange/ethidium bromide staining; assay type: functional, cell-based
[4] = Cytotoxicity against human A253 cells by SRB assay; assay type: functional, cell-based
[5] = Cytotoxicity against human Lipo cells by SRB assay; assay type: functional, cell-based
MCF7 [6] = test: Cytotoxicity against human MCF7 cells by SRB assay; assay type: functional, cell-based
NIH3T3 = test: Cytotoxicity against mouse NIH/3T3 cells by SRB assay; assay type: cell-based
8505C = test: Cytotoxicity against human 8505C cells by SRB assay; assay type: functional, cell-based
[7] = Cytotoxicity against human SW1736 cells by SRB assay; assay type: functional, cell-based; details: SW-1736
MCF7 [8] = test: Induction of apoptosis in human MCF7 cells at 40 uM by acridine orange/ethidium bromide staining; assay type: functional, cell-based
MCF7 [9] = test: Induction of apoptosis in human MCF7 cells at 30 uM by acridine orange/ethidium bromide staining; assay type: functional, cell-based
MCF7 [10] = test: Induction of apoptosis in human MCF7 cells at 12 uM by acridine orange/ethidium bromide staining; assay type: functional, cell-based

SMILES	IC50 [1]	Activity (MCF7 [2])	IC50 [3]	Activity (A549)	IC50 [4]	IC50 [5]	IC50 (MCF7 [6])	IC50 (NIH3T3)	IC50 (8505C)	IC50 [7]	Activity (MCF7 [8])	Activity (MCF7 [9])	Activity (MCF7 [10])
COC(=O)[C@@]1(C)CC[C@]2(C)CC[C@]3(C)C(=CC(=O)[C@@H]4[C@@]5(C)CC[C@H](O[C@@H]6OC[C@H](O)[C@H](O)[C@H]6O)C(C)(C)[C@@H]5CC[C@]43C)[C@@H]2C1	> 30 µM	Active	> 30 µM	Active	> 30 µM	> 30 µM	16.7 µM	> 30 µM	> 30 µM	> 30 µM			
COC(=O)[C@@]1(C)CC[C@]2(C)CC[C@]3(C)C(=CC(=O)[C@@H]4[C@@]5(C)CC[C@H](O[C@H]6O[C@@H](C)[C@H](O)[C@@H](O)[C@H]6O)C(C)(C)[C@@H]5CC[C@]43C)[C@@H]2C1	28.9 µM		> 30 µM	Active	27.2 µM	28.4 µM	> 30 µM	> 30 µM	> 30 µM	23.9 µM	Active		
COC(=O)[C@@]1(C)CC[C@]2(C)CC[C@]3(C)C(=CC(=O)[C@@H]4[C@@]5(C)CC[C@H](O[C@@H]6O[C@@H](C)[C@H](O)[C@@H](O)[C@H]6O)C(C)(C)[C@@H]5CC[C@]43C)[C@@H]2C1	> 30 µM		> 30 µM	Active	> 30 µM	> 30 µM	19.6 µM	> 30 µM	> 30 µM	> 30 µM		Active	
COC(=O)[C@@]1(C)CC[C@]2(C)CC[C@]3(C)C(=CC(=O)[C@@H]4[C@@]5(C)CC[C@H](O[C@@H]6O[C@H](CO)[C@H](O)[C@H](O)[C@H]6O)C(C)(C)[C@@H]5CC[C@]43C)[C@@H]2C1	23.3 µM		23.2 µM	Active	19.7 µM	23.2 µM	20.1 µM	23.4 µM	22.8 µM	21.4 µM		Active	
COC(=O)[C@@]1(C)CC[C@]2(C)CC[C@]3(C)C(=CC(=O)[C@@H]4[C@@]5(C)CC[C@H](O[C@H]6OC[C@@H](O)[C@@H](O)[C@@H]6O)C(C)(C)[C@@H]5CC[C@]43C)[C@@H]2C1	> 30 µM		> 30 µM	Active	> 30 µM	> 30 µM	> 30 µM	> 30 µM	> 30 µM	> 30 µM	Active		
COC(=O)[C@@]1(C)CC[C@]2(C)CC[C@]3(C)C(=CC(=O)[C@@H]4[C@@]5(C)CC[C@H](O[C@@H]6OC[C@@H](O)[C@H](O)[C@H]6O)C(C)(C)[C@@H]5CC[C@]43C)[C@@H]2C1	> 30 µM		> 30 µM	Active	> 30 µM	> 30 µM	> 30 µM	> 30 µM	> 30 µM	> 30 µM	Active		
COC(=O)[C@@]1(C)CC[C@]2(C)CC[C@]3(C)C(=CC(=O)[C@@H]4[C@@]5(C)CC[C@H](O[C@H]6O[C@H](CO)[C@@H](O)[C@H](O)[C@@H]6O)C(C)(C)[C@@H]5CC[C@]43C)[C@@H]2C1	25.9 µM		> 30 µM	Active	13.2 µM	> 30 µM	9.48 µM	> 30 µM	22 µM	11.2 µM			Active
COC(=O)[C@@]1(C)CC[C@]2(C)CC[C@]3(C)C(=CC(=O)[C@@H]4[C@@]5(C)CC[C@H](O)C(C)(C)[C@@H]5CC[C@]43C)[C@@H]2C1				Active								Active	

Source: ChEMBL document CHEMBL3102762, “A "natural" approach: synthesis and cytoxicity of monodesmosidic glycyrrhetinic acid glycosides” (Eur J Med Chem, 2014)
